Results on 6 compounds are retold here after patent US9486506B2 (Novo Nordisk A/S, priority 2011, dated 2016).

Numbered stars: 1 amine (or outer) side, 2 acyl side, 3 side chain; on linkers, the order of the positions; unused ones are H or OH. Side chains are listed from the residue outwards. Peptide text beside a SMILES is read from it. * marks the point of attachment. C18 diacid = O=C(O)CCCCCCCCCCCCCCCCC(=O)*; γGlu = O=C(O)[C@H](CCC(=O)[*:2])N[*:1]; AEEA = NCCOCCOCC(=O)O

A short description of series [1]: Assay (X) Chemical stability assessment by RP-UPLC. It is filed as physicochemical. Particulars: pH 8.15, 14 days at 37° C. vs 5° C., 333 μM.
Another series has as its target T1, glucagon receptor (Homo sapiens, UniProt P47871).
T1 construct: expressed in transfected cells
Kind of series: Assay (I) Glucagon activity (cAMP biosensor, FLIPR). Format: cell-based.

T1 sequence (P47871 26-477): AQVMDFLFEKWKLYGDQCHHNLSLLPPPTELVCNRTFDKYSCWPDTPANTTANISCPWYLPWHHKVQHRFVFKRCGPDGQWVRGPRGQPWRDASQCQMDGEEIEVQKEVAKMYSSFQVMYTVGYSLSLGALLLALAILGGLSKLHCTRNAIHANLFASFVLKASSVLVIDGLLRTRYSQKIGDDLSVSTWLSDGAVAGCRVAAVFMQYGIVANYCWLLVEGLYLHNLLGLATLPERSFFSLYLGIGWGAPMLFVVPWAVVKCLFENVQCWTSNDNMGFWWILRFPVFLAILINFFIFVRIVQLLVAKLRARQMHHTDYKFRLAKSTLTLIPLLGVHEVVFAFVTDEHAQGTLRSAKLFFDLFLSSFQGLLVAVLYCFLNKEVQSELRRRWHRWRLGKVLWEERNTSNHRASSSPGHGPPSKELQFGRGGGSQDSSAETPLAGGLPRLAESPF

Usually EC50 stands for the concentration that produces a half-maximal response. `CC(C)C[C@H](NC(=O)[C@H](CC(=O)O)NC(=O)[C@H](CC(C)C)NC(=O)[C@H](Cc1ccc(O)cc1)NC(=O)[C@H](CCCNC(=N)N)NC(=O)[C@H](CO)NC(=O)[C@H](Cc1ccc(O)cc1)NC(=O)[C@H](CC(=O)O)NC(=O)[C@H](CO)NC(=O)[C@@H](NC(=O)[C@H](Cc1ccccc1)NC(=O)[C@@H](NC(=O)CNC(=O)[C@H](CCC(N)=O)NC(=O)[C@H](CO)NC(=O)[C@@H](N)Cc1c[nH]cn1)[C@@H](C)O)[C@@H](C)O)C(=O)N[C@@H](CCCNC(=N)N)C(=O)N[C@@H](CCCNC(=N)N)C(=O)N[C@@H](C)C(=O)N[C@@H](CCC(N)=O)C(=O)N[C@@H](CC(=O)O)C(=O)N[C@@H](Cc1ccccc1)C(=O)N[C@H](C(=O)N[C@@H](CCCCNC(=O)CC[C@H](NC(=O)CC[C@H](NC(=O)CC[C@H](NC(=O)COCCOCCNC(=O)COCCOCCNC(=O)CC[C@H](NC(=O)CCCCCCCCCCCCCCCCC(=O)O)C(=O)O)C(=O)O)C(=O)O)C(=O)O)C(=O)N[C@@H](Cc1c[nH]c2ccccc12)C(=O)N[C@@H](CC(C)C)C(=O)N[C@@H](CC(C)C)C(=O)N[C@@H](CO)C(=O)N[C@H](C(=O)O)[C@@H](C)O)C(C)C` [Example 45, N^ε24-[(4S)-4-carboxy-4-[[(4S)-4-carboxy-4-[[(4S)-4-carboxy-4-[[2-[2-[2-[[2-[2-[2-[[(4S)-4-carboxy-4-(17-carboxyheptadecanoylamino)butanoyl]amino]ethoxy]ethoxy]acetyl]amino]ethoxy]ethoxy]acetyl]amino]butanoyl]amino]butanoyl]amino]butanoyl]-[Arg12,Leu16,Lys24,Leu27,Ser28]-Glucagon] (H-HSQGTFTSDYSRYLDLRRAQDFVK([γGlu-γGlu-γGlu-AEEA-AEEA-γGlu-C18 diacid])WLLST-OH): in series [1], the “Chemical stability [Purity loss/14 days 37 C.]” value was 3.3%. For the same compound, the response on glucagon receptor was half-maximal at 243 pM (EC50).

On to `CC[C@H](C)[C@H](NC(=O)[C@H](CC(=O)O)NC(=O)[C@H](CC(C)C)NC(=O)[C@H](Cc1ccc(O)cc1)NC(=O)[C@H](CCCCN)NC(=O)[C@H](CO)NC(=O)[C@H](Cc1ccc(O)cc1)NC(=O)[C@H](CC(=O)O)NC(=O)[C@H](CO)NC(=O)[C@@H](NC(=O)[C@H](Cc1ccccc1)NC(=O)[C@@H](NC(=O)CNC(=O)[C@H](CCC(N)=O)NC(=O)[C@H](CO)NC(=O)[C@@H](N)Cc1c[nH]cn1)[C@@H](C)O)[C@@H](C)O)C(=O)N[C@@H](CCCNC(=N)N)C(=O)N[C@@H](CCCNC(=N)N)C(=O)N[C@@H](C)C(=O)N[C@@H](CCC(N)=O)C(=O)N[C@@H](CC(=O)O)C(=O)N[C@@H](Cc1ccccc1)C(=O)N[C@H](C(=O)N[C@@H](CCCCNC(=O)CC[C@H](NC(=O)CC[C@H](NC(=O)COCCOCCNC(=O)COCCOCCNC(=O)CC[C@H](NC(=O)CCCCCCCCCCCCCCCCC(=O)O)C(=O)O)C(=O)O)C(=O)O)C(=O)N[C@@H](Cc1c[nH]c2ccccc12)C(=O)N[C@@H](CC(C)C)C(=O)N[C@@H](CC(C)C)C(=O)N[C@@H](CO)C(=O)N[C@H](C(=O)O)[C@@H](C)O)C(C)C` [Example 11, N^ε24-[(4S)-4-carboxy-4-[[(4S)-4-carboxy-4-[[2-[2-[2-[[2-[2-[2-[[(4S)-4-carboxy-4-(17-carboxyheptadecanoylamino)butanoyl]amino]ethoxy]ethoxy]acetyl]amino]ethoxy]ethoxy]acetyl]amino]butanoyl]amino]butanoyl]-[Ile^16,Lys^24,Leu^27,Ser^28]-Glucagon], for which, in series [1], the “Chemical stability [Purity loss/14 days 37 C.]” value is 6.2%. This compound also gave a half-maximal effective concentration (EC50) on glucagon receptor of 84 pM.

Turning to `CC(C)C[C@H](NC(=O)[C@H](CC(=O)O)NC(=O)[C@H](CC(C)C)NC(=O)[C@H](Cc1ccc(O)cc1)NC(=O)[C@H](CCCCN)NC(=O)[C@H](CO)NC(=O)[C@H](Cc1ccc(O)cc1)NC(=O)[C@H](CC(=O)O)NC(=O)[C@H](CO)NC(=O)[C@@H](NC(=O)[C@H](Cc1ccccc1)NC(=O)[C@@H](NC(=O)CNC(=O)[C@H](CCC(N)=O)NC(=O)[C@H](CO)NC(=O)[C@@H](N)Cc1c[nH]cn1)[C@@H](C)O)[C@@H](C)O)C(=O)N[C@@H](CCCNC(=N)N)C(=O)N[C@@H](CCCNC(=N)N)C(=O)N[C@@H](C)C(=O)N[C@@H](CCC(N)=O)C(=O)N[C@@H](CC(=O)O)C(=O)N[C@@H](Cc1ccccc1)C(=O)N[C@H](C(=O)N[C@@H](CCCCNC(=O)CC[C@H](NC(=O)CC[C@H](NC(=O)COCCOCCNC(=O)COCCOCCNC(=O)CC[C@H](NC(=O)CCCCCCCCCCCCCCC(=O)O)C(=O)O)C(=O)O)C(=O)O)C(=O)N[C@@H](Cc1c[nH]c2ccccc12)C(=O)N[C@@H](CC(C)C)C(=O)N[C@@H](CC(C)C)C(=O)N[C@@H](CO)C(=O)N[C@H](C(=O)O)[C@@H](C)O)C(C)C` [Example 85, N^ε24-[(4S)-4-carboxy-4-[[(4S)-4-carboxy-4-[[2-[2-[2-[[2-[2-[2-[[(4S)-4-carboxy-4-(15-carboxypentadecanoylamino)butanoyl]amino]ethoxy]ethoxy]acetyl]amino]ethoxy]ethoxy]acetyl]amino]butanoyl]amino]butanoyl]-[Leu16,Lys24,Leu27,Ser28]-Glucagon], the “Chemical stability [Purity loss/14 days 37 C.]” value in series [1] came out at 7.4%. The same compound returned a 50% effective concentration (EC50) on glucagon receptor of 39 pM.

Take `CC(C)C[C@H](NC(=O)[C@H](CC(=O)O)NC(=O)[C@H](CC(C)C)NC(=O)[C@H](Cc1ccc(O)cc1)NC(=O)[C@H](CCCNC(=N)N)NC(=O)[C@H](CO)NC(=O)[C@H](Cc1ccc(O)cc1)NC(=O)[C@H](CC(=O)O)NC(=O)[C@H](CO)NC(=O)[C@@H](NC(=O)[C@H](Cc1ccccc1)NC(=O)[C@@H](NC(=O)CNC(=O)[C@H](CCC(N)=O)NC(=O)[C@H](CO)NC(=O)[C@@H](N)Cc1c[nH]cn1)[C@@H](C)O)[C@@H](C)O)C(=O)N[C@@H](CCCNC(=N)N)C(=O)N[C@@H](CCCNC(=N)N)C(=O)N[C@@H](C)C(=O)N[C@@H](CCC(N)=O)C(=O)N[C@@H](CC(=O)O)C(=O)N[C@@H](Cc1ccccc1)C(=O)N[C@H](C(=O)N[C@@H](CCCCNC(=O)CC[C@H](NC(=O)CC[C@H](NC(=O)CC[C@H](NC(=O)CCCCCCCCCCCCCCCCC(=O)O)C(=O)O)C(=O)O)C(=O)O)C(=O)N[C@@H](Cc1c[nH]c2ccccc12)C(=O)N[C@@H](CC(C)C)C(=O)N[C@@H](CC(C)C)C(=O)N[C@@H](CO)C(=O)N[C@H](C(=O)O)[C@@H](C)O)C(C)C` [Example 29, N^ε24-[(4S)-4-carboxy-4-[[(4S)-4-carboxy-4-[[(4S)-4-carboxy-4-(17-carboxyheptadecanoylamino)butanoyl]amino]butanoyl]amino]butanoyl]-[Arg^12,Leu^16,Lys^24,Leu^27,Ser^28]-Glucagon] (H-HSQGTFTSDYSRYLDLRRAQDFVK([γGlu-γGlu-γGlu-C18 diacid])WLLST-OH): the “Chemical stability [Purity loss/14 days 37 C.]” value in series [1] was 2.8%. At glucagon receptor, this compound gave an EC50 of 1320 pM.

As for `CC(C)C[C@H](NC(=O)[C@H](CC(=O)O)NC(=O)[C@H](CC(C)C)NC(=O)[C@H](Cc1ccc(O)cc1)NC(=O)[C@H](CCCNC(=N)N)NC(=O)[C@H](CO)NC(=O)[C@H](Cc1ccc(O)cc1)NC(=O)[C@H](CC(=O)O)NC(=O)[C@H](CO)NC(=O)[C@@H](NC(=O)[C@H](Cc1ccccc1)NC(=O)[C@@H](NC(=O)CNC(=O)[C@H](CCC(N)=O)NC(=O)[C@H](CO)NC(=O)[C@@H](N)Cc1c[nH]cn1)[C@@H](C)O)[C@@H](C)O)C(=O)N[C@@H](CCCNC(=N)N)C(=O)N[C@@H](CCCNC(=N)N)C(=O)N[C@@H](C)C(=O)N[C@@H](CCC(N)=O)C(=O)N[C@@H](CC(=O)O)C(=O)N[C@@H](Cc1ccccc1)C(=O)N[C@H](C(=O)N[C@@H](CCCCNC(=O)CC[C@H](NC(=O)CC[C@H](NC(=O)COCCOCCNC(=O)COCCOCCNC(=O)CC[C@H](NC(=O)CCCCCCCCCCCCCCCCC(=O)O)C(=O)O)C(=O)O)C(=O)O)C(=O)N[C@@H](Cc1c[nH]c2ccccc12)C(=O)N[C@@H](CC(C)C)C(=O)N[C@@H](CC(C)C)C(=O)N[C@H](C(=O)N[C@H](C(=O)O)[C@@H](C)O)[C@@H](C)O)C(C)C` [Example 19, N^ε24-[(4S)-4-carboxy-4-[[(4S)-4-carboxy-4-[[2-[2-[2-[[2-[2-[2-[[(4S)-4-carboxy-4-(17-carboxyheptadecanoylamino)butanoyl]amino]ethoxy]ethoxy]acetyl]amino]ethoxy]ethoxy]acetyl]amino]butanoyl]amino]butanoyl]-[Arg^12,Leu^16,Lys^24,Leu^27,Thr^28]-Glucagon] (H-HSQGTFTSDYSRYLDLRRAQDFVK([γGlu-γGlu-AEEA-AEEA-γGlu-C18 diacid])WLLTT-OH), the “Chemical stability [Purity loss/14 days 37 C.]” value in series [1] is 4.3%. Further, at glucagon receptor, the EC50 stood at 754 pM.

On to `CC(C)C[C@H](NC(=O)[C@H](Cc1ccc(O)cc1)NC(=O)[C@H](CCCNC(=N)N)NC(=O)[C@H](CO)NC(=O)[C@H](Cc1ccc(O)cc1)NC(=O)[C@H](CC(=O)O)NC(=O)[C@H](CO)NC(=O)[C@@H](NC(=O)[C@H](Cc1ccccc1)NC(=O)[C@@H](NC(=O)CNC(=O)[C@H](CCC(N)=O)NC(=O)[C@H](CO)NC(=O)[C@@H](N)Cc1c[nH]cn1)[C@@H](C)O)[C@@H](C)O)C(=O)N[C@@H](CC(=O)O)C(=O)N[C@@H](Cc1ccccc1)C(=O)N[C@@H](CCCNC(=N)N)C(=O)N[C@@H](CCCNC(=N)N)C(=O)N[C@@H](C)C(=O)N[C@@H](CCC(N)=O)C(=O)N[C@@H](CC(=O)O)C(=O)N[C@@H](Cc1ccccc1)C(=O)N[C@H](C(=O)N[C@@H](CCCCNC(=O)CC[C@H](NC(=O)CC[C@H](NC(=O)COCCOCCNC(=O)COCCOCCNC(=O)CC[C@H](NC(=O)CCCCCCCCCCCCCCCCC(=O)O)C(=O)O)C(=O)O)C(=O)O)C(=O)N[C@@H](Cc1c[nH]c2ccccc12)C(=O)N[C@@H](CC(C)C)C(=O)N[C@@H](CC(C)C)C(=O)N[C@@H](CO)C(=O)N[C@H](C(=O)O)[C@@H](C)O)C(C)C` [Example 17, N^ε24-[(4S)-4-carboxy-4-[[(4S)-4-carboxy-4-[[2-[2-[2-[[2-[2-[2-[[(4S)-4-carboxy-4-(17-carboxyheptadecanoylamino)butanoyl]amino]ethoxy]ethoxy]acetyl]amino]ethoxy]ethoxy]acetyl]amino]butanoyl]amino]butanoyl]-[Arg^12,Phe^16,Lys^24,Leu^27,Ser^28]-Glucagon] (H-HSQGTFTSDYSRYLDFRRAQDFVK([γGlu-γGlu-AEEA-AEEA-γGlu-C18 diacid])WLLST-OH), for which the “Chemical stability [Purity loss/14 days 37 C.]” value in series [1] came to 3.1%. For the same compound, a half-maximal response on glucagon receptor (EC50) required 1640 pM.
